{"source": "paper PMC10300873", "about": "“Characterization of Polyphenols from Chenopodium botrys after Fractionation with Different Solvents and Study of Their In Vitro Biological Activity” (Molecules, 2023)", "tested_on": "T1, trypsin", "T1 construct": "gene PRSS1", "test": "antitryptic activity: albumin digestion, perchloric acid precipitation, A280", "type": "biochemical", "details": "human albumin (4% v/v) as substrate, Tris-HCl pH 7.4, 37 °C, 5 min preincubation, 20 min reaction", "text": "antitryptic activity: albumin digestion, perchloric acid precipitation, A280 on trypsin", "data": [{"smiles": "CC(C)Cc1ccc(C(C)C(=O)O)cc1", "note": "(stereo not shown) [ibuprofen]", "values": [{"measurement": "ATA / IC50 ± SD", "value": "259.82 ± 9.14", "unit": "µg/mL"}]}]}
